In patent US20250186409A1, “5-AMINOHEXAHYDRO-6,7,8-TRIHYDROXY-3H-OXAZOLO[3,4-A]PYRIDIN-3-ONE DERIVATIVES DERIVATIVES AS TLR4 MODULATORS FOR THE TREATMENT OF IMMUNE DISEASES” (CONSEJO SUPERIOR DE INVESTIGACIONES CIENTÍFICAS (CSIC), priority 2021, published 2025):
Entries after “also recorded” stand apart in the source; their conditions may differ. Each block holds one compound with its values, some of them ahead of it.

Columns and labels:
[1] = system: glycosidases (human fibroblast lysates); test: Stability of the glycosidic linkage to glycosidases on incubation with human fibroblast lysates; format: in vitro ADME; settings: 4 h, 37° C., pH 4.5, compound solution 200 μM, gas chromatography
Method: The stability of the glyosidic linkage in compounds 2, 4, 6, 8, 10, 12, 14, 16, 18, 20, 22, 25, 27, 29, 32 and 34 selected as representative examples, upon incubation with human fibroblast lysates for 4 h was checked. For such purpose, cells were scraped into ice-cold H2O (10^6 cells mL^−1) and lysed by sonication. Insoluble materials were removed by centrifugation at 15,000 rpm for 5 min and protein concentrations were determined with Protein Assay Rapid Kit (WAKO, Tokyo, Japan). 10 μL of the lysates in 0.1% Triton X-100 in distilled water were incubated at 37° C. with 20 μL of the compound solution (200 μM) in 0.1 M citrate buffer, pH 4.5. In control experiments, the activity of several lysosomas glycosidases was confirmed using fluorescent substrates. The substrates were 4-methylumbelliferone (4-MU)-conjugated β-D-glucopyranoside (for GCase), α-D-glucopyranoside (for α-glucosidase), α-D-galactopyranoside (for α-Galase) and β-D-galactopyranoside (for β-galactosidase). The liberated 4-methylumbelliferone was measured in the black-well plate with a Perkin Elmer Luminescence Spectrometer (excitation wavelength: 340 nm; emission: 460 nm). No traces of the free polysubstituted 2-oxa-3-oxoindolizidine, which would result from hydrolysis of the glycolipid mimetics, was detected by gas chromatography upon trimethylsilylation, confirming the stability of the compounds to the action of the glycosidases.

Splenocytes [2] = test: Suppression of LPS-induced inflammation (splenocytes in vitro); format: cell-based, mouse; settings: splenocytes treated concurrently with compound and LPS, FIG. 1
Method: FIG. 1. […] Splenocytes were treated concurrently with the compounds of the invention and LPS to assess the suppressive function of compounds on LPS-induced inflammation, with several compounds showing prominent suppressive function.
(§1) The whole spleen was surgically removed from a mouse and mechanically dissociated into a single cell suspension of splenocytes, which were then cultured in the complete RPMI 1640 medium (cRPMI). Human peripheral blood mononuclear cells (PBMCs) from healthy volunteers were collected from whole blood through gradient-centrifugation with Histopaque-1077 (Sigma-Aldrich).
Splenocytes were treated concurrently with the compounds of the invention and LPS to assess the suppressive function of compounds on LPS-induced inflammation.

[3] = system: ERK and p38 of the MAPK family, JNK and STAT3; test: Signal transduction by multiplex bead array (phosphorylation versus LPS treatment alone); format: cell-based; settings: compared to LPS treatment alone, 30 min post-treatment, FIG. 4
From the text: FIG. 4. […] Compounds 4 and 14, the representative compounds of the invention, were examined in term of signal transduction to explore how the new compounds exert their suppressive effect, using the multiplex bead array.
Using the multiplex bead array, we examined how the new compounds might exert their suppressive effect in term of signal transduction.

[4] = system: bone marrow-derived macrophages (BMDM); test: Suppression of LPS-induced inflammation (BMDM in vitro); format: cell-based; settings: FIG. 2; for suppression of IL-6 / suppression of TNFα: LPS-induced, BMDM; for suppression of IL-6: 50 μM; for suppression of TNFα: 10 and 50 μM
From the text: Since macrophage is the major responder to LPS-induced inflammation, we assessed the capability of selected compounds to suppress LPS-induced inflammation in bone marrow-derived macrophages (BMDM).

[5] = system: OVA-induced AHR mouse model; test: OVA-induced airway hyperreactivity (AHR) and airway inflammation mouse model; format: in vivo; settings: for suppression of OVA-induced airway hyperreactivity (AHR): OVA-induced AHR mouse model, FIG. 7; for suppression of IL-4 mRNA level in lungs / suppression of IL-13 mRNA level in lungs: lung mRNA, FIG. 10
Method: For ovalbumin (OVA) challenge, mice were sensitized intraperitoneally (i.p.) with 50 μg of OVA with 2% alhydrogel adjuvant (InvivoGen). Mice were challenged three times with 50 μg of OVA on day 7 post-sensitization, either daily or every other day. Mice were sacrificed the day after the last OVA challenge.
Mice were anesthetized with 100 mg per kg body weight pentobarbital (Sigma-Aldrich), tracheotomised and mechanically ventilated via the FinePointe RC system (Buxco Research Systems, Wilmington, NC). Lung function was assessed by measuring lung resistance and dynamic compliance in response to increasing doses of aerosolized methacholine (1.25-40 mg/mL, Sigma-Aldrich).
Upon exposure of the trachea, the lungs were lavaged twice with 1 mL of PBS supplemented with 2% fetal calf serum (FCS). BALF was pooled and BAL cells were pelleted by centrifugation and fixed onto cytospin slides. The slides were stained with Diff-Quik solution (Polysciences Inc) and BAL differential cell count was performed.
Using the Th2 OVA-induced AHR mouse model, we assessed the capability of selected compounds 14 and 29 in suppressing Th2 inflammation.

B6 mice [6] = test: Adjuvancy function of compounds in vivo (serum IFNγ and IL-4); settings: FIG. 11
Method: FIG. 11. […] The adjuvancy capability of the selected compound 29 in vivo was assessed by measuring the serum level of IFNγ and IL-4 induced after injecting them into B6 mice.
Besides assessing the ability of the new compounds to suppress inflammation, we also looked into their function to act as adjuvants, i.e. their ability to promote desirable immunological trends in the development of vaccines. We measured the in vivo adjuvancy capability of selected compounds 29 in inducing IFNγ and IL-4 in B6 mice (FIG. 11).

Splenocytes [7] = test: Immune-stimulating function of compounds alone (splenocytes in vitro); format: cell-based, mouse; settings: splenocytes treated with compound alone, FIG. 6
Method: FIG. 6. […] Splenocytes were treated with the compounds of the invention alone to assess the immune-stimulating function of the compounds.
as §1
Splenocytes were treated with the compounds of the invention alone to assess the immune-stimulating function of the compounds by measuring their ability to promote the secretions of IFN-γ and IL-4.

B6 mice [8] = test: Suppression of LPS-induced inflammation in vivo; settings: injected twice in a half hour time after LPS-treatment, FIG. 3
Method: FIG. 3. […] The in vivo capability of compound 29 in suppressing LPS-induced inflammation in B6 mice was assessed as indicated in the scheme.
To determine the anti-inflammatory function in vivo, we assessed the capability of compound 29 in suppressing LPS-induced inflammation in B6 mice.

[9] = bronchoalveolar lavage fluid, FIG. 8

SMILES: CCOP(=O)(N[C@@H]1C(O)[C@@H](O)[C@H](O)C2COC(=O)N21)OCC (stereo partly shown) [Compound 2]
free polysubstituted 2-oxa-3-oxoindolizidine from hydrolysis of the glycolipid mimetic (stability to glycosidases) [1]: No traces

SMILES: CCCCCCCCOP(=O)(N[C@@H]1C(O)[C@@H](O)[C@H](O)C2COC(=O)N21)OCCCCCCCC (stereo partly shown) [Compound 4]
free polysubstituted 2-oxa-3-oxoindolizidine from hydrolysis of the glycolipid mimetic (stability to glycosidases) [1]: No traces
suppression of LPS-induced inflammation (Splenocytes [2]): prominent inflammation-suppressing function
phosphorylation of ERK [3]: significantly reduced
phosphorylation of JNK [3]: but not JNK
phosphorylation of p38 [3]: significantly reduced
suppression of LPS-induced inflammation in BMDM [4]: efficient in suppressing LPS-induced inflammation
suppression of IL-6 [4]: significant suppression
suppression of TNFα [4]: significant suppression

SMILES: CCCCCCCCCCCCOP(=O)(N[C@@H]1C(O)[C@@H](O)[C@H](O)C2COC(=O)N21)OCCCCCCCCCCCC (stereo partly shown) [Compound 6]
free polysubstituted 2-oxa-3-oxoindolizidine from hydrolysis of the glycolipid mimetic (stability to glycosidases) [1]: No traces
suppression of LPS-induced inflammation (Splenocytes [2]): prominent inflammation-suppressing function

SMILES: CCCCNS(=O)(=O)N[C@@H]1C(O)[C@@H](O)[C@H](O)C2COC(=O)N21 (stereo partly shown) [Compound 8]
free polysubstituted 2-oxa-3-oxoindolizidine from hydrolysis of the glycolipid mimetic (stability to glycosidases) [1]: No traces

SMILES: CCCCCCCCNS(=O)(=O)N[C@@H]1C(O)[C@@H](O)[C@H](O)C2COC(=O)N21 (stereo partly shown) [Compound 10]
free polysubstituted 2-oxa-3-oxoindolizidine from hydrolysis of the glycolipid mimetic (stability to glycosidases) [1]: No traces

SMILES: CCCCCCCCCCCCNS(=O)(=O)N[C@@H]1C(O)[C@@H](O)[C@H](O)C2COC(=O)N21 (stereo partly shown) [Compound 12]
free polysubstituted 2-oxa-3-oxoindolizidine from hydrolysis of the glycolipid mimetic (stability to glycosidases) [1]: No traces

SMILES: CCCCCCCCCCCCCCCCNS(=O)(=O)N[C@@H]1C(O)[C@@H](O)[C@H](O)C2COC(=O)N21 (stereo partly shown) [Compound 14]
free polysubstituted 2-oxa-3-oxoindolizidine from hydrolysis of the glycolipid mimetic (stability to glycosidases) [1]: No traces
suppression of LPS-induced inflammation (Splenocytes [2]): prominent inflammation-suppressing function
suppression of OVA-induced airway hyperreactivity (AHR) [5]: can suppress AHR onset
suppression of IL-4 mRNA level in lungs [5]: significantly suppressed
suppression of IL-13 mRNA level in lungs [5]: significantly suppressed
phosphorylation of ERK [3]: significantly reduced
phosphorylation of JNK [3]: but not JNK
phosphorylation of STAT3 [3]: significant reduction
phosphorylation of p38 [3]: significantly reduced
suppression of LPS-induced inflammation in BMDM [4]: efficient in suppressing LPS-induced inflammation
suppression of IL-6 [4]: significant suppression
suppression of TNFα [4]: significant suppression

SMILES: CCCCCCCCNC(=[Se])N[C@@H]1C(O)[C@@H](O)[C@H](O)C2COC(=O)N21 (stereo partly shown) [Compound 25]
free polysubstituted 2-oxa-3-oxoindolizidine from hydrolysis of the glycolipid mimetic (stability to glycosidases) [1]: No traces

SMILES: CCCCCCCCCCCCNC(=S)N[C@@H]1C(O)[C@@H](O)[C@H](O)C2COC(=O)N21 (stereo partly shown) [Compound 27]
free polysubstituted 2-oxa-3-oxoindolizidine from hydrolysis of the glycolipid mimetic (stability to glycosidases) [1]: No traces
suppression of LPS-induced inflammation (Splenocytes [2]): prominent inflammation-suppressing function

SMILES: CCCCCCCCCCCCOC(=S)N[C@@H]1C(O)[C@@H](O)[C@H](O)C2COC(=O)N21 (stereo partly shown) [Compound 34]
free polysubstituted 2-oxa-3-oxoindolizidine from hydrolysis of the glycolipid mimetic (stability to glycosidases) [1]: No traces

The next lines start with results.

free polysubstituted 2-oxa-3-oxoindolizidine from hydrolysis of the glycolipid mimetic (stability to glycosidases) [1]: No traces
SMILES: CCCCCCCCOS(=O)(=O)N[C@@H]1C(O)[C@@H](O)[C@H](O)C2COC(=O)N21 (stereo partly shown) [Compound 16]

free polysubstituted 2-oxa-3-oxoindolizidine from hydrolysis of the glycolipid mimetic (stability to glycosidases) [1]: No traces
SMILES: CCCCCCCCCCCCOS(=O)(=O)N[C@@H]1C(O)[C@@H](O)[C@H](O)C2COC(=O)N21 (stereo partly shown) [Compound 18]

free polysubstituted 2-oxa-3-oxoindolizidine from hydrolysis of the glycolipid mimetic (stability to glycosidases) [1]: No traces
SMILES: CCCCCCCCCCCCCCCCOS(=O)(=O)N[C@@H]1C(O)[C@@H](O)[C@H](O)C2COC(=O)N21 (stereo partly shown) [Compound 20]

free polysubstituted 2-oxa-3-oxoindolizidine from hydrolysis of the glycolipid mimetic (stability to glycosidases) [1]: No traces
SMILES: CCCCCCCCS(=O)(=O)N[C@@H]1C(O)[C@@H](O)[C@H](O)C2COC(=O)N21 (stereo partly shown) [Compound 22]

free polysubstituted 2-oxa-3-oxoindolizidine from hydrolysis of the glycolipid mimetic (stability to glycosidases) [1]: No traces
SMILES: CCCCCCCCCCCCNC(=[Se])N[C@@H]1C(O)[C@@H](O)[C@H](O)C2COC(=O)N21 (stereo partly shown) [Compound 29]
induction of serum IFNγ (B6 mice [6]; 2 hours after injection): significant capability
induction of serum IL-4 (B6 mice [6]; 2 hours after injection): significant capability
serum IFNγ level (B6 mice [6]; 18 hours after injection): significant detectable level
suppression of LPS-induced inflammation (Splenocytes [2]): prominent inflammation-suppressing function
IFNγ secretion (Splenocytes [7]): effective in promoting; also recorded: induced significant IFNγ secretion
IL-4 secretion (Splenocytes [7]): but not IL-4
suppression of LPS-induced serum TNFα (B6 mice [8]): significantly suppressed; also recorded: significantly suppressing
suppression of OVA-induced airway hyperreactivity (AHR) [5]: suppress AHR significantly
suppression of IL-4 level in BALF [5, 9]: suppress both IL-13 and IL-4 levels significantly
suppression of IL-13 level in BALF [5, 9]: suppress both IL-13 and IL-4 levels significantly
suppression of IL-4 mRNA level in lungs [5]: significantly suppressed
suppression of IL-13 mRNA level in lungs [5]: significantly suppress; also recorded: significantly suppressed
suppression of IL-13 protein level in lungs ([5]; lung protein, FIG. 9): significantly suppress; also recorded: significant suppression

free polysubstituted 2-oxa-3-oxoindolizidine from hydrolysis of the glycolipid mimetic (stability to glycosidases) [1]: No traces
SMILES: CCCCCCCCCCCCCCCCNC(=[Se])N[C@@H]1C(O)[C@@H](O)[C@H](O)C2COC(=O)N21 (stereo partly shown) [Compound 32]
